The values below come from ChEMBL document CHEMBL1201862, “PubChem BioAssay data set” (2004).

Structures can show the parent of a compound that is named as a salt.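 Cultured in 96-well plates, cells were exposed to test compound for 48 hours across five concentrations. GI50 = concentration required for 50% inhibition of growth.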 Activity calls are given as the source filed them. No stated cut-off is given here; in the data, active = GI50 up to about 1.1 µM and inactive = higher.

Test in all cases: growth of human tumour cells (NCI), 48 h
Test [1] has as its system 786-0.
Test [2] deals with NCI-H226.
The test system of test [3] is OVCAR-3.
Test [4] has as its system MOLT-4.
Test [5] relates to SN12C.
In test [6] the test system is EKVX.
The test system of test [7] is RXF 393.
Test [8] concerns SR.
For test [9], the system named is DU-145.
The test system of test [10] is HL-60.
Test [11] deals with ACHN.
In test [12] the test system is COLO 205.
Test [13] has as its system M14.
For test [14], the system named is K562.
Test [15] deals with CAKI-1.
Test [16] concerns A549.
The subject of test [17] is NCI-H23.
For test [18], the system named is UACC-257.
Test [19] has as its system MDA-N.
Test [20] relates to Malme-3M.

As for `O=C(CCc1ccc(O)c(O)c1)NCCc1cc(O)cc(O)c1`, the GI50 in test [1], in test [2], in test [3], in test [4], in [5] and in test [6] was > 100 µM (inactive) throughout. For the same compound, the GI50 in test [7], in [8], in test [9], in test [10], in [11] and in [12] was > 100 µM (inactive) in each case. The GI50 in [13] was > 100 µM (inactive); in test [14] it was 25.7 µM (inactive); in [15], > 100 µM (inactive); in test [16], > 100 µM (inactive); in test [17] it was > 100 µM (inactive); in test [18], > 100 µM (inactive). Also, in [19], the GI50 was 23.8 µM (inactive).
As for `COc1ccc(-c2cc(-c3cc(C)cc(Br)c3O)no2)cc1`, the GI50 in [1] was 12 µM (inactive); in test [2], 5.18 µM (inactive); in test [3] it was 6.38 µM (inactive); in test [4], 13.5 µM (inactive); in [5] it was 7.59 µM (inactive); in test [6], 25.2 µM (inactive). The GI50 in test [8] is 67.5 µM (inactive); in test [9] it was 16.6 µM (inactive); in test [10], 47.9 µM (inactive); in test [11], 8.36 µM (inactive); in test [12] it was > 10 µM (inactive); in [13], 25.6 µM (inactive). Further, the GI50 in test [14] was 14.1 µM (inactive); in test [15] it was 6.98 µM (inactive); in test [16], 13.3 µM (inactive); in test [17], 14.7 µM (inactive); in [18] it was 11 µM (inactive); in test [19], 23.6 µM (inactive).
Consider `O=c1c2c3c(sc2nc2n1sc1nc4sc5c(c4c(=O)n12)CCCC5)CCCC3`, for which the GI50 in test [1] is 17.3 µM (inactive); in [2] it was > 50.7 µM (inactive); in test [3], 24.2 µM (inactive); in [4], 37.1 µM (inactive); in test [5] it was > 87.1 µM (inactive); in [6], 12 µM (inactive). Moreover, the GI50 was 21 µM (inactive) in test [7]; 25.8 µM (inactive) in test [8]; > 44.8 µM (inactive) in test [9]; 27.2 µM (inactive) in test [10]; 61.5 µM (inactive) in test [11]; 26.6 µM (inactive) in test [12]. Further, the GI50 in test [13] is 98.2 µM (inactive); in test [14], 25.1 µM (inactive); in test [15], 19.5 µM (inactive); in [16] it was > 77.1 µM (inactive); in test [17], 30.6 µM (inactive); in test [18] it was > 96.8 µM (inactive). In test [19], the GI50 was > 51.3 µM (inactive).
In the case of `COc1c(CC=C(C)C)c(O)c(C(CC(C)C)c2c(O)c3c(c(C(C)=O)c2O)OC(C(C)(C)O)C3)c(O)c1C(C)=O` (stereo unspecified), the GI50 is 5.65 µM (inactive) in test [1]; 6.08 µM (inactive) in test [3]; 1.74 µM (inactive) in [4]; 3.93 µM (inactive) in [5]; 3.76 µM (inactive) in test [6]; 3.67 µM (inactive) in [7]. Further, the GI50 in test [8] is 2.17 µM (inactive); in test [9], 4.54 µM (inactive); in test [10], 3.52 µM (inactive); in test [11] it was 4.42 µM (inactive); in test [12], 3.21 µM (inactive); in test [13] it was 6.05 µM (inactive). Also, the GI50 is 2.6 µM (inactive) in test [14]; 3.93 µM (inactive) in [15]; 4.21 µM (inactive) in test [16]; 3.91 µM (inactive) in test [20]; 2.63 µM (inactive) in test [17]; 4.18 µM (inactive) in test [18]. Also, the GI50 in test [19] was 4.05 µM (inactive).
For `Cc1cn(C2CC(O)C(CO[Si](C)(C)C(C)(C)C)OC2OC(C)C)c(=O)[nH]c1=O` (stereo unspecified), the GI50 is 16.6 µM (inactive) in test [1]; 41.9 µM (inactive) in [2]; 20.6 µM (inactive) in test [3]; 39.6 µM (inactive) in test [5]; 42.5 µM (inactive) in [6]; 34 µM (inactive) in [7]. The GI50 is 31.2 µM (inactive) in test [8]; > 100 µM (inactive) in test [9]; 50.5 µM (inactive) in test [11]; 21.5 µM (inactive) in [12]; 34.9 µM (inactive) in [13]; 49.3 µM (inactive) in test [14]. Besides, the GI50 in test [15] was 55.2 µM (inactive); in [16], 34.1 µM (inactive); in test [20], 44.5 µM (inactive); in test [17] it was 39.6 µM (inactive); in test [18] it was 34.6 µM (inactive); in test [19], 36.1 µM (inactive).
With `CC(=O)O[C@H]1CC[C@H]2[C@@H]3CCC4=CC(=O)C=C[C@]4(O)[C@H]3CC[C@]12C`, the GI50 in test [1] is 50.6 µM (inactive); in [2], 16.6 µM (inactive); in test [3], 42.1 µM (inactive); in [4], 8 µM (inactive); in test [5], > 71.9 µM (inactive); in test [6] it was 31.7 µM (inactive). In addition, the GI50 in [7] is 20.6 µM (inactive); in test [8] it was 0.738 µM (active); in test [9], > 50.4 µM (inactive); in [11] it was > 84.5 µM (inactive); in test [12], 22.4 µM (inactive); in [13] it was 32.1 µM (inactive). The GI50 in test [14] was 7.66 µM (inactive); in test [15] it was > 55.1 µM (inactive); in [16], > 42 µM (inactive); in [17] it was 9.91 µM (inactive); in [18], 18.4 µM (inactive); in test [19], 29.9 µM (inactive).
As to `O=C(O)COc1cc(-c2ccccc2)nc2ccc(F)cc12`, the GI50 in [1], in test [2], in [3], in test [4], in test [5] and in [6] was > 100 µM (inactive) each time. Besides, the GI50 in test [8], in [9], in test [10], in test [11], in test [12] and in test [13] was > 100 µM (inactive) each time. Further, the GI50 in test [14], in [15], in test [16], in test [20], in [17] and in test [18] was > 100 µM (inactive) in each case. The GI50 in [19] was > 100 µM (inactive).
Take `CC(C)=CCC[C@](C)(O[C@@H]1O[C@H](CO)[C@@H](O)[C@H](O)[C@H]1O)[C@H]1CC[C@]2(C)[C@@H]1[C@H](O)C[C@@H]1[C@@]3(C)CC[C@@H](O)C(C)(C)[C@@H]3[C@@H](O[C@@H]3O[C@H](CO)[C@@H](O)[C@H](O)[C@H]3O)C[C@]12C.C[C@@H]1O[C@@H](O[C@H]2[C@H](O[C@H]3C[C@]4(C)[C@H](C[C@H](O)[C@@H]5[C@@H]([C@@]6(C)CC[C@H](C(C)(C)O)O6)CC[C@]54C)[C@@]4(C)CC[C@H](O)C(C)(C)[C@H]34)O[C@H](CO)[C@@H](O)[C@@H]2O)[C@H](O)[C@H](O)[C@H]1O`: the GI50 in test [1] is > 100 µM (inactive); in test [2], > 100 µM (inactive); in [3], 24.9 µM (inactive); in test [4], 84.9 µM (inactive); in test [5], > 100 µM (inactive); in [6], > 100 µM (inactive). Further, the GI50 in test [7], in test [8], in test [9], in [10], in test [11] and in test [12] was > 100 µM (inactive) in each case. Besides, the GI50 in [13], in test [14], in test [15], in [16], in test [17] and in test [18] was > 100 µM (inactive) each time. Further, the GI50 in test [19] was > 100 µM (inactive).
In the case of `Cc1ccc2c(O)cc(-c3cccc(Cl)c3)nc2n1`, the GI50 was < 0.0255 µM (active) in test [1]; 0.0489 µM (active) in test [2]; < 0.01 µM (active) in test [3]; < 0.0229 µM (active) in test [4]; > 68.1 µM (inactive) in test [6]; 0.0266 µM (active) in test [8]. Further, the GI50 in [9] is 0.194 µM (active); in test [10] it was < 0.0169 µM (active); in [11], 0.313 µM (active); in test [12], 0.0308 µM (active); in test [13] it was 0.0306 µM (active); in [14] it was < 0.0169 µM (active). Moreover, the GI50 in test [15] is 0.0415 µM (active); in test [16], 0.0325 µM (active); in test [20], 0.0661 µM (active); in [17], 0.272 µM (active); in [18], 0.0393 µM (active); in test [19], 1 µM (active).
As to `CN1[C@@H]2C[C@@H](OC(=O)[C@H](CO)c3ccccc3)C[C@H]1[C@@H]1O[C@@H]12` [SCOPOLAMINE HYDROBROMIDE], the GI50 in test [1], in test [2], in test [3], in test [4], in [5] and in test [6] was > 100 µM (inactive) each time. The GI50 in test [7], in test [8], in test [9], in test [11], in test [12] and in test [13] was > 100 µM (inactive) in each case. Further, the GI50 in test [14], in test [15], in test [16], in [20], in [17] and in test [18] was > 100 µM (inactive) in each case. The GI50 in [19] is > 100 µM (inactive).
